Reference: patent US20130338090A1, “Novel Compound Isolated from Allium tuberosum and Use Thereof as Antiviral Agent” (priority 2011, published 2013)

Tested on: avian influenza virus (H5N1), A/Vietnam/1194/04(H5N1)-NIBRG-14 vaccine strain
Format: cell-based

SMILES | Activity | log100TCID50/ml | viral titer lower than that of the control group | CPE inhibitory concentration
C[C@@H]1O[C@@H](OC[C@H]2O[C@@H](Oc3c(-c4ccc(O)cc4)oc4cc(O)cc(O)c4c3=O)[C@H](O)[C@@H](O)[C@@H]2O)[C@H](O)[C@H](O)[C@H]1O [Compound I, kaempferol 3-O-α-L-rhamnopyranosyl (1→6)-β-D-glucopyranoside] | ◯ (key: ◯: antiviral activity defined as a decrease of 4 log units; X: antiviral activity defined as a decrease of 4 log units) | 5 | 4 log | 
O=C(O)[C@H]1O[C@@H](Oc2cc(O)c3c(=O)cc(-c4ccc(O)cc4)oc3c2)[C@H](O)[C@@H](O)[C@@H]1O [Compound II, apigenin 7-O-β-D-glucuronopyranoside] | X (key: ◯: antiviral activity defined as a decrease of 4 log units; X: antiviral activity defined as a decrease of 4 log units) | 0 |  | >10 µg/mL
